Where “and” joins values, the source holds several entries; their conditions need not be identical. Equal values may be shown once. Read-outs that look alike come from different tables or passages of the source.
Experiments:
[1] = tested on: F. novicida; type: cell-based, F. tularensis subsp. novicida
[2] = tested on: J774 cells; type: cell-based, murine
[3] = tested on: F. novicida; parameters: species or system F. tularensis subsp. novicida; settings: in vivo
[4] = tested on: F. novicida; parameters: species or system F. tularensis subsp. novicida; settings: in vivo; remark: listed apart in the source
[5] = tested on: F. novicida; parameters: species or system F. tularensis subsp. novicida; settings: in vivo; remark: listed apart in the source
[6] = cited from earlier work
[7] = mouse, in vivo

IFN-γ
intracellular bacterial replication in macrophages [1]: markedly inhibited replication of bacteria | TNF-α increase [2]: 9 fold and 18 fold

IL-12
bacteria in the liver and spleen [3]: marked reduction of bacteria | bacteria recovered from the spleens [3]: no bacteria recovered | time to death [4]: significantly increased the time to death | animals succumbed to the infection by day [5]: ≤ 6 days | half-life in vivo [6]: longer sustainable half-life than IFN-γ | toxicity ([6]; in vivo): very little toxicity | intracellular bacterial replication in macrophages [1]: did not inhibit bacterial replication | toxicity [7]: no toxicity observed | efficacy of route of delivery ([7]; ip): most efficacious | TNF-α detected (in words) [2]: very little TNF-α

gentamicin
survival [5]: 17% | survival / control of the disease (in words) [5]: ineffective in controlling the disease
